From patent US7550451B2, “Progesterone receptor modulators with increased antigonadotropic activity for female birth control and hormone replacement therapy” (Bayer Schering Pharma AG, priority 2002, dated 2009)

Molecular target: T1, Androgen receptor (Rattus norvegicus, UniProt P15207)
T1 construct: Prostate cytosol of the castrated rat; from tissue; host or cells: prostate cytosol of castrated rat
T1 sequence (P15207 1-902): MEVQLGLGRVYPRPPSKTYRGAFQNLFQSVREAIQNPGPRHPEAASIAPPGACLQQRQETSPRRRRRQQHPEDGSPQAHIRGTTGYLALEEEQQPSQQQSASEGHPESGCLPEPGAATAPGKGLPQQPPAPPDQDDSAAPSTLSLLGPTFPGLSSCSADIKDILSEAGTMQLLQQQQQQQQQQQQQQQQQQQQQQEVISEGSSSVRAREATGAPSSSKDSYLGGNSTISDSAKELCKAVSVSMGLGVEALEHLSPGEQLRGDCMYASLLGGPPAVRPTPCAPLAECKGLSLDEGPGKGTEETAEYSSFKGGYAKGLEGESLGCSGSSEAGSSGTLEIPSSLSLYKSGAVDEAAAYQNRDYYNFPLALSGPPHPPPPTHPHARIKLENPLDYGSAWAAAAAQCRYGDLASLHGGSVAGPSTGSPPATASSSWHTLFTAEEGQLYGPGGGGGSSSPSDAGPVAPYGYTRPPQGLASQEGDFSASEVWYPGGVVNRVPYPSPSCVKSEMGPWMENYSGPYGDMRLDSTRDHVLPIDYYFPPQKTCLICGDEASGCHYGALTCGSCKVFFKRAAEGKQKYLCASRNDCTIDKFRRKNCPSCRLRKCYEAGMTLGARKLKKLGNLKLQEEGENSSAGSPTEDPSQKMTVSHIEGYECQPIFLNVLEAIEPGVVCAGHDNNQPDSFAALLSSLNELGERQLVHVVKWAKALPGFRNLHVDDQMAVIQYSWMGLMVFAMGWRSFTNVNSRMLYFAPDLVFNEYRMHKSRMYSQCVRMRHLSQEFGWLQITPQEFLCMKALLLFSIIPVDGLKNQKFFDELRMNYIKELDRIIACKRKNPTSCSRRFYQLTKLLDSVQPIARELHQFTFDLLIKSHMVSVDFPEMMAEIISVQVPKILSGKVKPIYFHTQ
Experiment: Receptor binding affinity, androgen receptor (competitive binding, 3H-metribolone)
Conditions: prostate cytosol of castrated rat; for AR relative molar binding affinity (RBA) a) against RU 1881: reference RU 1881 (metribolone); for AR relative molar binding affinity (RBA) b) against dihydrotestosterone (DHT): reference dihydrotestosterone
Protocol: The receptor binding affinity was determined by competitive binding of a specifically binding ^3H-labeled hormone (tracer) and the compound to be tested on receptors in the cytosol from animal target organs. In this case, receptor saturation and reaction equilibrium were sought.
The tracers and increasing concentrations of the compound to be tested (competitor) were co-incubated with the receptor-containing cytosol fraction at 0-4° C. over 18 hours. After separation of the unbonded tracer with carbon-dextran suspension, the receptor-bonded tracer portion was measured for each concentration, and the IC50 was determined from the concentration sequence. As a quotient of the IC50 values of the reference substance and the compound to be tested (×100%), the relative molar binding affinity (RBA) was calculated (RBA of the reference substance=100%).
Prostate cytosol of the castrated rat; prostates stored at −30° C.; buffer: TED with 10% glycerol as well as 2 μmol of triamcinolone acetonide. Tracer: ^3H-metribolone 4 nmol; reference substances: metribolone (RU 1881) or 5α-dihydrotestosterone.

Structure (SMILES)	AR relative molar binding affinity (RBA) a) against RU 1881	AR relative molar binding affinity (RBA) b) against dihydrotestosterone (DHT)
C[C@]12C[C@H](c3ccc(/C=N/O)cc3)C3=C4CCC(=O)C=C4CC[C@H]3[C@@H]1CC[C@@H]2O [Example 1, 4-(17β-Hydroxy-3-oxoestra-4,9-dien-11β-yl)benzaldehyde-1(E)-oxime]	a) 17%	b) 24%
CC1(O)CCC2C3CCC4=CC(=O)CCC4=C3C(c3ccc(C=NO)cc3)CC21C (stereo not drawn) [Example 2, 4-(17β-Hydroxy-17α-methyl-3-oxoestra-4,9-dien-11β-yl)benzaldehyde-1(E)-oxime]	a) 16%	b) 23%
